According to paper PMC8429736, “Pharmacological characterization of mutant huntingtin aggregate-directed PET imaging tracer candidates” (Scientific Reports, 2021):

Legend:
Exon1-Q46 aggregates = target: T1, Exon1-Q46 aggregates (Homo sapiens, UniProt P42858, INS38QQQQQQQQQQQQQQQQQQQQQQQQQ); assay: RBA competition binding against tritiated 3, Exon1-Q46 aggregates; conditions: 0.3 nM tritiated 3 as radioligand; 1 µM aggregates; mean ± SD; read-out: IC50 Exon1-Q46
T1 construct: MBP-HTT(1-89)Q46-His(6x); MBP (N, cleaved yes); made in house; host or cells: E. coli BL21 (DE3)
Method: (§1) For the competition assay format, Q46 or Exon1-Q46 aggregates at 1 µM (sample volume 150 µL) were pre-incubated in a 96-well round bottom plate (Corning, #3365) for 20 min with test compounds at room temperature (assay buffer 50 mM Tris–HCl pH 8.0, 150 mM NaCl). […] Radioligand 3 at 0.3 nM was added and incubated for 1 h at 37 °C.
(§2) Samples were then transferred onto a 96-well GF/B filter plate (Perkin Elmer, #6005177) using a Filtermate Harvester, aspirated by vacuum and wells washed twice with 200 µL PBS. After drying the filter plates for 1 h at 55 °C the back of the plate was sealed with aluminum cover and 30 µL of scintillation fluid (Perkin Elmer, #6013641) per well was added. The tops of the plates were sealed, and the plates were incubated for 15 min in the dark and counted in a TopCount or MicroBeta2 reader (both Perkin Elmer).
(§3) Raw sample data collected as counts per minute (cpm) were normalized towards assay controls: 0% inhibition = radioligand + protein + vehicle, 100% inhibition = radioligand + protein + 1 µM unlabeled ligand. A 4-parameter […] fit was applied to generate IC50 values.

Q46 aggregates = assay: RBA competition binding against tritiated 3, Q46 aggregates; conditions: 0.3 nM tritiated 3 as radioligand; 1 µM aggregates; mean ± SD
Method: as §1, §2, §3

[1] = tested on: beta amyloid/tau aggregates in post-mortem AD patient brain homogenates; assay: ADbh RBA competition format; format: binding, human; conditions: for displacement of bound 5: radioligand 5
Method: (§4) For RBA in vitro binding assays, brain tissue was sliced (50 µm), weighed and homogenized in PBS (Gibco, 14190-94), 0.1% BSA with a glass pestle (10 strokes) at a concentration of 12–15 mg wet tissue per mL buffer. The crude homogenate concentration was then adjusted to 10 mg/mL (wet tissue) and stored as single-use aliquots at -80 °C.
RBA experiments using Alzheimer’s disease brain homogenates (ADbh RBA) followed the same assay principle as the RBA with recombinant HTT protein, using 0.68 mg/mL homogenate (100 µg per well with 150 µL assay volume) in assay buffer PBS, 0.01% Pluronic F127 (Sigma. P2443) and 1% DMSO after compound addition. […] Incubation at room temperature was conducted for 20 min after compound addition and for 5 h after radioligand addition. For the competition format, raw cpm were normalized towards assay controls as before, to obtain inhibition between 0 and 100%. For saturation binding, raw cpm were converted into nM as before, using a calibration line of total added radioligand, and normalized to mg of added homogenate to finally obtain pmol/mg.

[2] = target: beta amyloid plaques (6E10 antibody) (Homo sapiens, UniProt P05067); assay: HR ARG co-registration with 6E10 antibody, human AD brain sections; format: binding; conditions: 10 nM CHDI-180, 10 nM CHDI-626, 0.1 nM PiB, 1 nM T808
[3] = target: phospho-Tau tangles (AT8 antibody) (Homo sapiens, UniProt P10636); assay: HR ARG co-registration with AT8 antibody, human AD brain sections; format: binding; conditions: 10 nM CHDI-180, 10 nM CHDI-626, 0.1 nM PiB, 1 nM T808
[4] = target: beta amyloid/tau aggregates in post-mortem AD patient brain homogenates; assay: ADbh RBA saturation (direct) binding; set-up: species or system human; conditions: 100 µg homogenate per well
Method: as §4
RBA experiments using Alzheimer’s disease brain homogenates (ADbh RBA) followed the same assay principle as the RBA with recombinant HTT protein, using 0.68 mg/mL homogenate (100 µg per well with 150 µL assay volume) in assay buffer PBS, 0.01% Pluronic F127 (Sigma. P2443) and 1% DMSO after compound addition. Competition experiments were conducted with 0.5 nM radioligand 4 and 50 µg homogenate per well. Incubation at room temperature was conducted for 20 min after compound addition and for 5 h after radioligand addition. For the competition format, raw cpm were normalized towards assay controls as before, to obtain inhibition between 0 and 100%. For saturation binding, raw cpm were converted into nM as before, using a calibration line of total added radioligand, and normalized to mg of added homogenate to finally obtain pmol/mg.

Sequence of phospho-Tau tangles (AT8 antibody) (P10636 623-695 limits assumed): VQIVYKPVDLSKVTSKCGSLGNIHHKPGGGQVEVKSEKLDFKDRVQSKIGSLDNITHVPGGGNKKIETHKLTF
T1 sequence (P42858 with tags, fused parts or gaps with the stated changes): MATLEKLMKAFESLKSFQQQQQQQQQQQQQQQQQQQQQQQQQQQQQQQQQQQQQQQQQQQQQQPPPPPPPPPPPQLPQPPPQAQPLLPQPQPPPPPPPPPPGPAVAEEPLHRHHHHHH
Sequence of beta amyloid plaques (6E10 antibody) (P05067 672-713 limits assumed): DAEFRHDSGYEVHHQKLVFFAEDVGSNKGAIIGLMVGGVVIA

FCCC1CCN(c2ccn3c(n2)nc2ccccc23)CC1 [Compound T808]
IC50 (Exon1-Q46 aggregates): > 333 nM
IC50 (Q46 aggregates): > 333 nM
heterologous competition with radioligand 4 ([1]; radioligand 4): could not compete
displacement of bound 5 [1]: ~ 50%
co-registration with 6E10-positive beta amyloid plaques [2]: not with 6E10 antibody
co-registration with AT8-positive phospho-Tau immunoreactivity [3]: co-registered with AT8

CNc1ccc(-c2nc3ccc(O)cc3s2)cc1F [Flutemetamol]
heterologous competition with radioligand 4 ([1]; radioligand 4): complete displacement
displacement of bound 5 [1]: complete displacement

CNc1ccc(-c2nc3ccc(O)cc3s2)cc1 [PiB]
IC50 (Exon1-Q46 aggregates): 72.5 ± 0.4 nM
IC50 (Q46 aggregates): > 333 nM
Kd [4]: 3.4 nM

[11CH3]Nc1ccc(-c2nc3ccc(O)cc3s2)cc1 [PiB]
Bmax, AD brain homogenate [4]: 10.5 pmol/mg
heterologous competition with radioligand 4 ([1]; radioligand 4): complete displacement
displacement of 4 at 0.1 µM ([1]; radioligand 4, compound 0.1 µM): fully displace
displacement of bound 5 [1]: complete displacement
co-registration with AT8-positive phospho-Tau immunoreactivity [3]: not with AT8 immunoreactivity
